This is an account of results in PMC10526857, “In Vitro Enzymatic Studies Reveal pH and Temperature Sensitive Properties of the CLIC Proteins” (Biomolecules, 2023).

Structures are written as SMILES.

Test [1] addresses T1, CLIC3 (Homo sapiens, UniProt O95833).
T1 construct: recombinant, E. coli BL21(DE3), pET-28a His-tag cut off with thrombin, Ni-NTA and SEC purified
The experiment in a line: HEDS assay coupled to glutathione reductase, NADPH consumption at […] nm, Lineweaver-Burk. The test is classed as biochemical. As to conditions: 1 mM GSH, 250 µM NADPH, 0.5 µg/mL yeast GR, 10 µM CLIC, 5 mM potassium phosphate pH 7, 1 mM EDTA, 37 °C.

In test [2] the target is T2, CLIC4 (Homo sapiens, UniProt Q9Y696).
T2 construct: recombinant, E. coli, pGEX-4T-1 N-terminal GST tag cut off with thrombin, SEC purified
T2 sequence (Q9Y696 whole entry): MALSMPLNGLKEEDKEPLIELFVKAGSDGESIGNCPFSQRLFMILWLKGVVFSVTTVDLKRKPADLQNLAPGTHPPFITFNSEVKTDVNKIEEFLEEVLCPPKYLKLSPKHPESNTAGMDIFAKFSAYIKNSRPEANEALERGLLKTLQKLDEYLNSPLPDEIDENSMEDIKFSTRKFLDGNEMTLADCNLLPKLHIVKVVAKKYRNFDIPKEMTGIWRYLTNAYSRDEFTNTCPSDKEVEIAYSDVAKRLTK
The test is described as above. The test is classed as biochemical. As to conditions: 1 mM GSH, 250 µM NADPH, 0.5 µg/mL yeast GR, 10 µM CLIC, 5 mM potassium phosphate pH 7, 1 mM EDTA, 37 °C.

In test [3] the target is T3, CLIC1 (Homo sapiens, UniProt O00299). As to conditions: 1 mM GSH, 250 µM NADPH, 0.5 µg/mL yeast GR, 10 µM CLIC, 5 mM potassium phosphate pH 7, 1 mM EDTA, 37 °C.
Test [4] addresses T1, CLIC3. The experiment in a line: inhibition of HEDS reductase activity, GR-coupled NADPH consumption at […] nm. The test is classed as biochemical. As to conditions: 10 µM inhibitor, 10 µM CLIC, 1 h preincubation at 4 °C; 1 mM HEDS, 1 mM GSH, 250 µM NADPH, 0.5 µg/mL GR, pH 7, 37 °C.
The target in test [5] is T2, CLIC4. Described as above. As to conditions: 10 µM inhibitor, 10 µM CLIC, 1 h preincubation at 4 °C; 1 mM HEDS, 1 mM GSH, 250 µM NADPH, 0.5 µg/mL GR, pH 7, 37 °C. Format: biochemical.
Test [6] has as its target T3, CLIC1. Described as above. Format: biochemical. Further details: recombinant, E. coli BL21(DE3), pET-28a His-tag cut off with thrombin, Ni-NTA and SEC purified. As to conditions: 10 µM inhibitor, 10 µM CLIC, 1 h preincubation at 4 °C; 1 mM HEDS, 1 mM GSH, 250 µM NADPH, 0.5 µg/mL GR, pH 7, 37 °C.

T1 sequence (O95833 whole entry): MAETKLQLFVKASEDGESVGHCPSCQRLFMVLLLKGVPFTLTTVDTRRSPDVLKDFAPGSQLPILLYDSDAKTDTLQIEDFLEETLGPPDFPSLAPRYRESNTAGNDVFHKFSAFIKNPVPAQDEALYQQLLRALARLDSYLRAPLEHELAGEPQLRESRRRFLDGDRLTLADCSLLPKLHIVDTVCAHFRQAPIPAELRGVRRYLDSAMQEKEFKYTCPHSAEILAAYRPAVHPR

In the case of `OCCSSCCO` [HEDS], the Km on CLIC3 [1] worked out at 266 µM; at CLIC4 [2], 345 µM; at CLIC1 [3], 274 µM.
In the case of `C[C@@H]1[C@H](O)[C@@H](C)/C=C/C=C/C=C/C=C/C=C/C=C/C=C/[C@H](O[C@@H]2O[C@H](C)[C@@H](O)[C@H](N)[C@@H]2O)C[C@@H]2O[C@](O)(C[C@@H](O)C[C@@H](O)[C@H](O)CC[C@@H](O)C[C@@H](O)CC(=O)O[C@H]1C)C[C@H](O)[C@H]2C(=O)O` [amphotericin B], the “residual activity (%) at 10 μM” value was “Both rapamycin and amphotericin B caused inhibition of the enzymatic activity of all three proteins” at CLIC3 [4]; “Both rapamycin and amphotericin B caused inhibition of the enzymatic activity of all three proteins” at CLIC4 [5]; “with CLIC1′s activity virtually abolished by all three drugs” on CLIC1 [6].
Take `CO[C@H]1C[C@@H]2CC[C@@H](C)[C@@](O)(O2)C(=O)C(=O)N2CCCC[C@H]2C(=O)O[C@H]([C@H](C)C[C@@H]2CC[C@@H](O)[C@H](OC)C2)CC(=O)[C@H](C)/C=C(\C)[C@@H](O)[C@@H](OC)C(=O)[C@H](C)C[C@H](C)/C=C/C=C/C=C/1C` [rapamycin]: the “residual activity (%) at 10 μM” value at CLIC3 [4] was “Both rapamycin and amphotericin B caused inhibition of the enzymatic activity of all three proteins”; on CLIC4 [5] it was “Both rapamycin and amphotericin B caused inhibition of the enzymatic activity of all three proteins”; at CLIC1 [6], “with CLIC1′s activity virtually abolished by all three drugs”.
